According to patent US20080153862A1, “SPIROPIPERIDINE DERIVATIVES” (priority 2006, published 2008):

Biological target: T1, human V1a receptor (Homo sapiens, UniProt P37288)
T1 construct: expressed in transfected cells; host or cells: HEK293 cells, transiently transfected; membrane preparation
Test: V1a activity: human V1a receptor binding (3H-Vasopressin SPA, HEK293 membranes)
Conditions: membranes of HEK293 cells transiently transfected with human V1a receptor, Ki by Cheng-Prussoff equation, read-out: pKi hV1a (converted)
Method: The human V1a receptor was cloned by RT-PCR from total human liver RNA. The coding sequence was subcloned in an expression vector after sequencing to confirm the identity of the amplified sequence. […] Cell membranes were prepared from HEK293 cells transiently transfected with the expression vector and grown in 20 liter fermenters with the following protocol.
50 g of cells were resuspended in 30 ml freshly prepared ice cold Lysis buffer (50 mM HEPES, 1 mM EDTA, 10 mM MgCl2 adjusted to pH=7.4+complete cocktail of protease inhibitor (Roche Diagnostics)); homogenized with Polytron for 1 min; and sonicated on ice for 2×2 minutes at 80% intensity (Vibracell sonicator). The preparation was centrifuged 20 min at 500 g at 4° C., the pellet was discarded and the supernatant centrifuged 1 hour at 43′000 g at 4° C. (19′000 rpm). The pellet was resuspended in 12.5 ml Lysis buffer+12.5 ml Sucrose 20% and homogenized using a Polytron for 1-2 min. The protein concentration was determined by the Bradford method, and aliquots were stored at −80° C. until use. For binding studies 60 mg Yttrium silicate SPA beads (Amersham) were mixed with an aliquot of membrane in binding buffer (50 mM Tris, 120 mM NaCl, 5 mM KCl, 2 mM CaCl2, 10 mM MgCl2) for 15 minutes with mixing. 50 ul of bead/membrane mixture was then added to each well of a 96 well plate, followed by 50 ul of 4 nM 3H-Vasopressin (American Radiolabeled Chemicals). For total binding measurement 100 ul of binding buffer were added to the respective wells, for non-specific binding 100 ul of 8.4 mM cold vasopressin and for compound testing 100 ul of a serial dilution of each compound in 2% DMSO. The plate was incubated 1 h at room temperature, centrifuged 1 min at 1000 g and counted on a Packard Top-Count. Non-specific binding counts were subtracted from each well and data was normalized to the maximum specific binding set at 100%. To calculate an IC 50 the curve was fitted using a non-linear regression model (XLfit), and the Ki was calculated using the Cheng-Prussoff equation.

T1 sequence (P37288 whole entry): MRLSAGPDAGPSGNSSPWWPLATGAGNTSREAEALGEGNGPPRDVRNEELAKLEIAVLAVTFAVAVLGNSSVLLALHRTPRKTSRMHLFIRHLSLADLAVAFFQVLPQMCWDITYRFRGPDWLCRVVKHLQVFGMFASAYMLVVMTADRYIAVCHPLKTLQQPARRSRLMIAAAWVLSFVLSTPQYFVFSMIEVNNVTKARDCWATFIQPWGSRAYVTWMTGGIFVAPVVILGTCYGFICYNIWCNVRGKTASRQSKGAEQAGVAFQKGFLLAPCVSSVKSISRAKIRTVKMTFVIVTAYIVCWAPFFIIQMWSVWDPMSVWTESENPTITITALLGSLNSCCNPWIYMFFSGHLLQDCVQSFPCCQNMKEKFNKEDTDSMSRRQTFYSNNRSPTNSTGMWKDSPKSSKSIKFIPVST

Compound | Ki
O=C(c1ccc2ccccc2c1)N1CCC2(C=Cc3ccccc32)CC1 [Example 36, 1′-(2-Naphthoyl)spiro[indene-1,4′-piperidine]] | 0.0891 µM
O=C1OC2(CCN(C(=O)c3ccc(Cl)c(Cl)c3)CC2)c2cc(OCCO)ccc21 [Example 12, 1′-(3,4-Dichlorobenzoyl)-6-(2-hydroxyethoxy)-3H-spiro[2-benzofuran-1,4′-piperidin]-3-one] | 0.0219 µM
COc1cc(C(=O)N2CCC3(CC2)OCc2ccccc23)c2[nH]ccc2c1 [Example 27, 1′-[(5-Methoxy-1H-indol-7-yl)carbonyl]-3H-spiro[2-benzofuran-1,4′-piperidine]] | 0.0501 µM
CC(C)(C)c1ccc(C(=O)N2CCC3(CC2)OCc2ccccc23)cc1 [Example 25, 1′-(4-tert-Butylbenzoyl)-3H-spiro[2-benzofuran-1,4′-piperidine]] | 0.0631 µM
COc1ccc2c(c1)C1(CCN(C(=O)c3ccc4ccccc4c3)CC1)OC2=O [Example 1, 6-Methoxy-1′-(2-naphthoyl)-3H-spiro[2-benzofuran-1,4′-piperidin]-3-one] | 0.00832 µM
O=C(c1ccc2ccccc2c1)N1CCC2(CC1)C(=O)Nc1ccc(Br)cc12 [Example 33, 5-Bromo-1′-(2-naphthoyl)spiro[indole-3,4′-piperidin]-2(1H)-one] | 0.11 µM

Now from value to compound:

Ki | Compound
0.0288 µM | COc1ccc2c(c1)C1(CCN(C(=O)c3ccc(Cl)c(Cl)c3)CC1)OC2=O [Example 7, 1′-(3,4-Dichlorobenzoyl)-6-methoxy-3H-spiro[2-benzofuran-1,4′-piperidin]-3-one]
0.0479 µM | COc1ccc2c(c1)C(=O)OC21CCN(C(=O)c2ccc(Cl)c(Cl)c2)CC1 [Example 9, 1′-(3,4-Dichlorobenzoyl)-5-methoxy-3H-spiro[2-benzofuran-1,4′-piperidin]-3-one]
0.0295 µM | O=C1OC2(CCN(C(=O)c3ccc(Cl)c(Cl)c3)CC2)c2ccc(F)cc21 [Example 11, 1′-(3,4-Dichlorobenzoyl)-5-fluoro-3H-spiro[2-benzofuran-1,4′-piperidin]-3-one]
0.112 µM | O=C(c1ccc(Cl)c(Cl)c1)N1CCC2(CCc3ccccc32)CC1 [Example 42, 1′-(3,4-Dichlorobenzoyl)-2,3-dihydrospiro[indene-1,4′-piperidine]]
0.0191 µM | O=C1OC2(CCN(C(=O)c3ccc(Cl)c(Cl)c3)CC2)c2ccccc21 [Example 6, 1′-(3,4-Dichlorobenzoyl)-3H-spiro[2-benzofuran-1,4′-piperidin]-3-one]
